The results in this text go back to patent publication US20250382298A1, “NITROGEN-CONTAINING COMPOUND AND USE THEREOF” (SUZHOU GENHOUSE BIO CO., LTD., priority 2022, published 2025).

For one assay, the target named is hERG potassium channel (Homo sapiens (Human), UniProt Q12809). The experiment in a line: hERG whole-cell patch clamp (Qpatch) in HEK293 cells. The format is cell-based. To be noted: top concentration 30 μM. As for the experimental part: HEK293 cells were cultured in a DMEM medium containing 10% fetal bovine serum and 0.8 mg/mL G418 at 37° C. with 5% CO2. The cells were digested by TrypLE™ Express and then centrifuged. The cell density was adjusted to 2×10^6 cells/ml. The cells were then gently mixed for 15-20 min using a shaker equilibrated at room temperature, and subjected to patch clamping on a machine. The medium of the prepared cells was replaced with extracellular fluid. The intracellular fluid and the extracellular fluid were taken from the fluid pool, and added to the intracellular fluid pool and the cell and test substance pool of the QPlate chip, respectively. The voltage stimulation of the whole-cell hERG potassium current was recorded by the whole-cell patch clamp, and the experimental data was collected and stored by Qpatch. The test compound was 3-fold diluted starting from 30 μM to obtain 6 concentration points, each for two administrations over a period of at least 5 min. The current detected in compound-free extracellular fluid for each cell served as its own control group, and the detection was repeated at least twice independently using two cells per concentration. All electrophysiological experiments were performed at […].
hERG potassium channel, sequence (Q12809 whole entry): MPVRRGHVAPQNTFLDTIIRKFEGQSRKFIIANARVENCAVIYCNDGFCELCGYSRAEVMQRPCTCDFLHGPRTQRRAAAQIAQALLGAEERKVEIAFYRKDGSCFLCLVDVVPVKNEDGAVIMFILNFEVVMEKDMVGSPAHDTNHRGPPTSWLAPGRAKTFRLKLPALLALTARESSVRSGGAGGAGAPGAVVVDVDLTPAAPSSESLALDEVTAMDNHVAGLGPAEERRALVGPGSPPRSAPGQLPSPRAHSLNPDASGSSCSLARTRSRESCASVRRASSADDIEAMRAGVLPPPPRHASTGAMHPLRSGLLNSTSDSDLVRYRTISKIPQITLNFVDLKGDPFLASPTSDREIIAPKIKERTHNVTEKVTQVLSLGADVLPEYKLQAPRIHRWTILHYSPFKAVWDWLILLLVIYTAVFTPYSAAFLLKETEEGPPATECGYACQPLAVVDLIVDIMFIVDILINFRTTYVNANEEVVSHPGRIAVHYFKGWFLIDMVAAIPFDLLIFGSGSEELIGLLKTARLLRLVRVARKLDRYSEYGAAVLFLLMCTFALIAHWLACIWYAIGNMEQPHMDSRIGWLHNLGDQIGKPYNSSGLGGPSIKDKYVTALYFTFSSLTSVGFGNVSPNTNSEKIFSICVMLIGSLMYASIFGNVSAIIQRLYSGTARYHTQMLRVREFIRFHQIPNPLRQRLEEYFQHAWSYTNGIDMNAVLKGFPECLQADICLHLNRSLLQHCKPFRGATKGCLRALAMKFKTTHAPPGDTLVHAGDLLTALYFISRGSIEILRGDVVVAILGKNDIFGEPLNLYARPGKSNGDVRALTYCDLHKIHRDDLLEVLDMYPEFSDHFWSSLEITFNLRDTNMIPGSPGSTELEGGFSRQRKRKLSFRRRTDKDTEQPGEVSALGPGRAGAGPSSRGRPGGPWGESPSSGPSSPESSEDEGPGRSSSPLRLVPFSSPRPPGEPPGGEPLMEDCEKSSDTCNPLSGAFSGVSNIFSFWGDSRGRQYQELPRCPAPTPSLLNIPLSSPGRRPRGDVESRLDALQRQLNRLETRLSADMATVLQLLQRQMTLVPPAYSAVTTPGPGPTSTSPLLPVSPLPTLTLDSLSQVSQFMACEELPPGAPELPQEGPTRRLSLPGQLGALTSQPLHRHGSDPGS
For data analysis, the current after the action of each drug concentration and the current of the blank control were standardize
and then the inhibition rate corresponding to each drug concentration was calculated
The mean and standard error were calculated for each concentration, and the half maximal inhibitory concentration of each compound was calculated:
The dose-dependent effect was subjected to non-linear fitting using the above equation, where Y represents the inhibition rate, C represents the concentration of the test substance, IC50 is the half maximal inhibitory concentration, and HillSlope represents the Hill coefficient. Curve fitting and calculation of IC50 were performed using the Graphpad software.
With `O=C(Nc1cn2ccnc2c(N2CCC(F)(F)CC2)n1)c1ccc(NS(=O)(=O)CCO)cc1N1CCC2(CC1)CC2` [Compound 8], the IC50 is > 30 µM.
Turning to `CS(=O)(=O)Nc1ccc(C(=O)Nc2cn3ccnc3c(N3CCC(F)(F)CC3)n2)c(N2CC3CCC(C3)C2)c1` [Compound 19], the half-maximal inhibitory concentration (IC50) is > 30 µM.
With `O=C(Nc1cc2cccnc2c(N2CCC(F)(F)CC2)n1)c1ccc(NS(=O)(=O)CCO)cc1N1CCC2(CC1)CC2` [Compound 21], the half-inhibitory concentration (IC50) was > 30 µM.
In the case of `O=C(Nc1cc2ccccc2c(N2CCC(F)(F)CC2)n1)c1ccc(NS(=O)(=O)CCO)cc1N1CCC2(CC1)CC2` [Compound 6], the IC50 is > 30 µM.

Another assay concerns Human colon cancer HT-29 cells. As to the kind of experiment: Pharmacodynamic experiment in mice, subcutaneous HT-29 tumor. Format: in vivo. To be noted: 20 mpk BID intragastric, after 16 days of administration, HT-29 subcutaneous tumor in mice. The procedure:
Human colon cancer HT-29 cells were cultured in monolayer in vitro under the following conditions: DMEM medium containing 10% fetal bovine serum and 1% penicillin and streptomycin, at 37° C. with 5% CO2. The cells were digested with trypsin three times a week for passaging. When the saturation degree of the cells was 80%-90%, the cells were collected, counted, and inoculated, 0.1 mL (1×10^6 cells) of HT-29 cells were subcutaneously inoculated on the tight back of each mouse. On day 11 after inoculation of the cells, the mean tumor volume reached 325 mm^3. The mice were randomly grouped for administration (the animals were divided into an administration group and a control group, with 6 animals in each group). The day of grouping was defined as d0, and intragastric administration was started on d1. The administration was performed twice daily at an administration volume of 10 mL/kg. Vehicle control was adminstered to the control group. The tumor volume was measured 2-3 times per week, and meanwhile, the mice were weighed and the data were recorded; daily observations were made to record the body surface signs of the mice. After the experiment was completed, the tumors were removed, weighed, and photographed for recording.
Calculation formula for tumor volume: […]
Take `O=C(Nc1cn2c(F)cnc2c(N2CCC(F)(F)CC2)n1)c1ccc(NS(=O)(=O)CCO)cc1N1CCC2(CC1)CC2` [Compound 34]: the TGI amounted to 105.10%.
For `CS(=O)(=O)Nc1ccc(C(=O)Nc2cn3ccnc3c(N3CCC(F)(F)CC3)n2)c(N2CC3CCC(C3)C2)c1` [Compound 19], the TGI is 111.82%.
Regarding `CS(=O)(=O)Nc1ccc(C(=O)Nc2cc3cc[nH]c3c(N3CCC(F)(F)CC3)n2)c(N2CCC3(CC2)CC3)c1` [Compound 47], the TGI was 108.84%.

Broadly, the IC50 is the concentration needed to halve the response being measured.
